# Experiments:
# [1] = biological target: Fibroblast growth factor receptor 3 (Homo sapiens) (UniProt P22607); assay: Inhibition of human FGFR3 catalytic domain expressed in baculovirus assessed as substrate phosphorylation using fluorescence-labelled peptides as substrate at 95 uM after 90 mins by microfluidic peptide phosphorylation assay
# [2] = biological target: Fibroblast growth factor receptor 2 (Homo sapiens) (UniProt P21802); assay: Inhibition of human FGFR2 catalytic domain expressed in baculovirus assessed as substrate phosphorylation using fluorescence-labelled peptides as substrate at 0.2 uM after 90 mins by microfluidic peptide phosphorylation assay
# [3] = biological target: Ribosomal protein S6 kinase alpha-3 (Homo sapiens) (UniProt P51812); assay: Inhibition of human full length RSK2 expressed in baculovirus assessed as substrate phosphorylation using fluorescence-labelled peptides as substrate at 2 uM after 90 mins by microfluidic peptide phosphorylation assay
# [4] = biological target: Ribosomal protein S6 kinase alpha-1 (Homo sapiens) (UniProt Q15418); assay: Inhibition of human full length RSK1 expressed in baculovirus assessed as substrate phosphorylation using fluorescence-labelled peptides as substrate at 2 uM after 90 mins by microfluidic peptide phosphorylation assay
# [5] = biological target: Tyrosine-protein kinase Fyn (Homo sapiens) (UniProt P06241); assay: Inhibition of human full length FYN expressed in baculovirus assessed as substrate phosphorylation using fluorescence-labelled peptides as substrate at 1000 uM after 90 mins by microfluidic peptide phosphorylation assay
# [6] = biological target: T1, Mitogen-activated protein kinase 12 (Homo sapiens) (UniProt P53778); assay: Inhibition of human full length p38 gamma expressed in Escherichia coli cell assessed as substrate phosphorylation using fluorescence-labelled peptides as substrate at 1000 uM after 90 mins by microfluidic peptide phosphorylation assay
# T1 sequence (whole entry): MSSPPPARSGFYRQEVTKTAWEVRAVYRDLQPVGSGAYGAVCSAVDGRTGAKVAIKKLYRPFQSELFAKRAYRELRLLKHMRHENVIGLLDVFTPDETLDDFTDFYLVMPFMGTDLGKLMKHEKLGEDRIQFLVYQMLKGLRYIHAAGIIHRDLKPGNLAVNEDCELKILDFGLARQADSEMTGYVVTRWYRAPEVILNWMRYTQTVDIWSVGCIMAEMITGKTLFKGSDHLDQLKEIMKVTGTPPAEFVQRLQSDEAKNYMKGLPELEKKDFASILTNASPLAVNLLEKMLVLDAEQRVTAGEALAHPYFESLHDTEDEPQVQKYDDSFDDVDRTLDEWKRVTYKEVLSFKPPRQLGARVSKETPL
# [7] = biological target: Tyrosine-protein kinase ABL1 (Homo sapiens) (UniProt P00519); assay: Inhibition of human full-length ABL expressed in baculovirus assessed as substrate phosphorylation using fluorescence-labelled peptides as substrate at 1000 uM after 90 mins by microfluidic peptide phosphorylation assay
# [8] = biological target: Calcium/calmodulin-dependent protein kinase type II subunit delta (Homo sapiens) (UniProt Q13557); assay: Inhibition of human full length CAMK2D expressed in baculovirus assessed as substrate phosphorylation using fluorescence-labelled peptides as substrate at 0.06 uM after 90 mins by microfluidic peptide phosphorylation assay
# [9] = biological target: Tyrosine-protein kinase ABL1 (Homo sapiens) (UniProt P00519); assay: Inhibition of human full-length ABL expressed in baculovirus assessed as substrate phosphorylation using fluorescence-labelled peptides as substrate at 0.06 uM after 90 mins by microfluidic peptide phosphorylation assay
# [10] = biological target: Calcium/calmodulin-dependent protein kinase type II subunit beta (Homo sapiens) (UniProt Q13554); assay: Inhibition of human CAMK2 beta catalytic domain expressed in baculovirus assessed as substrate phosphorylation using fluorescence-labelled peptides as substrate at 0.06 uM after 90 mins by microfluidic peptide phosphorylation assay
# [11] = biological target: MAP kinase-activated protein kinase 2 (Homo sapiens) (UniProt P49137); assay: Inhibition of human full length MAPKAPK2 expressed in baculovirus assessed as substrate phosphorylation using fluorescence-labelled peptides as substrate at 420 uM after 90 mins by microfluidic peptide phosphorylation assay
# [12] = biological target: T2, Mitogen-activated protein kinase 13 (Homo sapiens) (UniProt O15264); assay: Inhibition of human full length p38 delta expressed in Escherichia coli cell assessed as substrate phosphorylation using fluorescence-labelled peptides as substrate at 9 uM after 90 mins by microfluidic peptide phosphorylation assay
# T2 sequence (whole entry): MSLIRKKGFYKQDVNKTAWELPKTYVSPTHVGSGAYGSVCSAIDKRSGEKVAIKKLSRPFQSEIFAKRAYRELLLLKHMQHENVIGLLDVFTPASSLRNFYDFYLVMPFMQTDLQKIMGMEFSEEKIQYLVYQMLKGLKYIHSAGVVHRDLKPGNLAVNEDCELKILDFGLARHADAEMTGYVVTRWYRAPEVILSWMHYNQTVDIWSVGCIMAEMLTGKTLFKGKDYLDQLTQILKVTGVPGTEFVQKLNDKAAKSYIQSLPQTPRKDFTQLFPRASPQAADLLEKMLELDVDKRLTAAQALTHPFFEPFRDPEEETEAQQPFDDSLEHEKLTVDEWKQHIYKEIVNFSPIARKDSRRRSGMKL
# [13] = biological target: T3, Serine/threonine-protein kinase BRSK2 (Homo sapiens) (UniProt Q8IWQ3); assay: Inhibition of human truncated BRSK2 expressed in baculovirus assessed as substrate phosphorylation using fluorescence-labelled peptides as substrate at 70 uM after 90 mins by microfluidic peptide phosphorylation assay
# T3 sequence (whole entry): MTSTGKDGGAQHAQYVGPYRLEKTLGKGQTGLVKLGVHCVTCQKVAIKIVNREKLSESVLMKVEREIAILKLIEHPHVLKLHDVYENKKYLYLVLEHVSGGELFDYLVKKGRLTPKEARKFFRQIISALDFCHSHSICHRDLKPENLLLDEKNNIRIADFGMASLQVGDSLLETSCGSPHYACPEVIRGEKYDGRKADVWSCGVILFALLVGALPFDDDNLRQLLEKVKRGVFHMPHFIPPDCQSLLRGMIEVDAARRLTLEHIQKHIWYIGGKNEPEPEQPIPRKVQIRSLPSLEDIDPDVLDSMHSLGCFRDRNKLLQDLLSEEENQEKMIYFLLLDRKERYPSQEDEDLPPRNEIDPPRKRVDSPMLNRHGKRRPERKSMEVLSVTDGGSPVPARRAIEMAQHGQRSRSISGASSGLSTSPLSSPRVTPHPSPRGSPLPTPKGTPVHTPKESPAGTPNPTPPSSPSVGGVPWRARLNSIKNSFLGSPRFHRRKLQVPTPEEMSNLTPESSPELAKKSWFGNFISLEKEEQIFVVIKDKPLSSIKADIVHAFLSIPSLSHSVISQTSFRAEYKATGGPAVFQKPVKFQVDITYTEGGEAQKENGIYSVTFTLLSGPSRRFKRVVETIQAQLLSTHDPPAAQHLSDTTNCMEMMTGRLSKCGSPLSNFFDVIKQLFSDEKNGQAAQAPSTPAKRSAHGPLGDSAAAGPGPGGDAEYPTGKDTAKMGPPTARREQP
# Sequence of Tyrosine-protein kinase ABL1 (Homo sapiens) (P00519 whole entry, the tested form may be a part): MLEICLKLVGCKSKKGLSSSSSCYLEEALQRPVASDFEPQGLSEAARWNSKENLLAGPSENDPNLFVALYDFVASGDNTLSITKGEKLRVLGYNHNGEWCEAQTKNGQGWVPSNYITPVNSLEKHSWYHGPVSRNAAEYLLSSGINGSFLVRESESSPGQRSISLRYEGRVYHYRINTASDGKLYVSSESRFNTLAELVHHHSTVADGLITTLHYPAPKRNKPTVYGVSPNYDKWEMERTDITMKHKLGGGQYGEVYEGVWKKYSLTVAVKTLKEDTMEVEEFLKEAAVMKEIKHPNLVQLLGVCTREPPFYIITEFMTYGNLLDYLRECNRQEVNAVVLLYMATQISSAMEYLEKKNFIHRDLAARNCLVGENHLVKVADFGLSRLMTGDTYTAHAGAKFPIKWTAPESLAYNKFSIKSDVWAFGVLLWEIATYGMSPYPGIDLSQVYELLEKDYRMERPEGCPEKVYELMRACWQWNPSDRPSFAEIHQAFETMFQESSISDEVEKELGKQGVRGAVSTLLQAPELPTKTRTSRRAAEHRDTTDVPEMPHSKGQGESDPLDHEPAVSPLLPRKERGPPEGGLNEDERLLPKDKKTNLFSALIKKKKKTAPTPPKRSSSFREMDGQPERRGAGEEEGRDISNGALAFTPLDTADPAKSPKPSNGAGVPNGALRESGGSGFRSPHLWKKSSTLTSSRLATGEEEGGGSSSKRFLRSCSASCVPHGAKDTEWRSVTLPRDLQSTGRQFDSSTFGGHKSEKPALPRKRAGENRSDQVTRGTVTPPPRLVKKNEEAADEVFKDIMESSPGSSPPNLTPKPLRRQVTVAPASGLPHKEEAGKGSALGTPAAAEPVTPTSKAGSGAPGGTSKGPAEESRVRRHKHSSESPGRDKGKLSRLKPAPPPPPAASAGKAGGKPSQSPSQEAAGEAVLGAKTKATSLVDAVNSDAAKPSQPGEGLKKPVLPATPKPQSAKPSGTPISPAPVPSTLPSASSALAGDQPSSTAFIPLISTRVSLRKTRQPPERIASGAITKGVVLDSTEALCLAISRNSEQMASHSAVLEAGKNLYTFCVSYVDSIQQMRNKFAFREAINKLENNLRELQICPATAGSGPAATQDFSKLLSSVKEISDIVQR
# Sequence of Fibroblast growth factor receptor 2 (Homo sapiens) (P21802 22-821 limits assumed): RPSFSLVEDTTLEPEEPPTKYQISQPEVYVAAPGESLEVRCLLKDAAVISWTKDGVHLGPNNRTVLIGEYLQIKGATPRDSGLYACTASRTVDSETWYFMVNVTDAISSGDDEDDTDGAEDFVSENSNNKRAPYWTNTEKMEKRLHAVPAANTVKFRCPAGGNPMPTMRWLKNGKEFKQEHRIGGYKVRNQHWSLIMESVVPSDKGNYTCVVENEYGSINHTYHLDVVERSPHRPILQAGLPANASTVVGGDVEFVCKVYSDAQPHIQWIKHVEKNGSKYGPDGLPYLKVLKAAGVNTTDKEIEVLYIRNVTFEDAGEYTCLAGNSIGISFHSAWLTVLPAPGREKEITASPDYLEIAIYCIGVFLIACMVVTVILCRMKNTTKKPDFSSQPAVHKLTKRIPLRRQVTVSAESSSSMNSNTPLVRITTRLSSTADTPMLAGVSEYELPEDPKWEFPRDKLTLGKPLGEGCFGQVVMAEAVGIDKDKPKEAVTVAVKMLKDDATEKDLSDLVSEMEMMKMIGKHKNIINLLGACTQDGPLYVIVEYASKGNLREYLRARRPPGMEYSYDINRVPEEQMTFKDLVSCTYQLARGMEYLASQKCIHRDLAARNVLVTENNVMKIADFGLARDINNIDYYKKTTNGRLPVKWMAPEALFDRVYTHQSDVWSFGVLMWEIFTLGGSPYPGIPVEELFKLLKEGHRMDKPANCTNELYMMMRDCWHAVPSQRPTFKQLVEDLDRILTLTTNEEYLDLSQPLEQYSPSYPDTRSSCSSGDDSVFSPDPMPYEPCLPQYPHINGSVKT
# Sequence of Ribosomal protein S6 kinase alpha-3 (Homo sapiens) (P51812 whole entry): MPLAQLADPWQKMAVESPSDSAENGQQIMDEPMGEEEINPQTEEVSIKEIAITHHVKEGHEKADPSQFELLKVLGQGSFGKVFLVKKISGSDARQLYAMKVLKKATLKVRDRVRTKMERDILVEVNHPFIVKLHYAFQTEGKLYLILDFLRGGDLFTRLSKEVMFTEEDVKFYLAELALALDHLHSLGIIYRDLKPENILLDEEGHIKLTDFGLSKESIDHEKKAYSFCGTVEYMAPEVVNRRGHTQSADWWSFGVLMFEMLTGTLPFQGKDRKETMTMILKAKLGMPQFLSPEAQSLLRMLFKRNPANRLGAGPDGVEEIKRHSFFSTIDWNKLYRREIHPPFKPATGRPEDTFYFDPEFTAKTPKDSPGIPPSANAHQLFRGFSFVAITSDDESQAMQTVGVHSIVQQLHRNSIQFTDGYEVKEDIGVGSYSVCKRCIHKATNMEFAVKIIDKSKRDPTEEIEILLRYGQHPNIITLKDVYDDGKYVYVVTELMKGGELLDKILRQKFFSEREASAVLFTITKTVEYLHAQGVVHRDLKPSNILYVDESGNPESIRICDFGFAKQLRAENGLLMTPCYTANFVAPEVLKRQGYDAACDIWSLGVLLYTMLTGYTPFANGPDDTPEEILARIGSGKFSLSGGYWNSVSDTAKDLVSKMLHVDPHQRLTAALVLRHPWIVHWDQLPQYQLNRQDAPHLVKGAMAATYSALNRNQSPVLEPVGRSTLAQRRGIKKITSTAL
# Sequence of Ribosomal protein S6 kinase alpha-1 (Homo sapiens) (Q15418 whole entry): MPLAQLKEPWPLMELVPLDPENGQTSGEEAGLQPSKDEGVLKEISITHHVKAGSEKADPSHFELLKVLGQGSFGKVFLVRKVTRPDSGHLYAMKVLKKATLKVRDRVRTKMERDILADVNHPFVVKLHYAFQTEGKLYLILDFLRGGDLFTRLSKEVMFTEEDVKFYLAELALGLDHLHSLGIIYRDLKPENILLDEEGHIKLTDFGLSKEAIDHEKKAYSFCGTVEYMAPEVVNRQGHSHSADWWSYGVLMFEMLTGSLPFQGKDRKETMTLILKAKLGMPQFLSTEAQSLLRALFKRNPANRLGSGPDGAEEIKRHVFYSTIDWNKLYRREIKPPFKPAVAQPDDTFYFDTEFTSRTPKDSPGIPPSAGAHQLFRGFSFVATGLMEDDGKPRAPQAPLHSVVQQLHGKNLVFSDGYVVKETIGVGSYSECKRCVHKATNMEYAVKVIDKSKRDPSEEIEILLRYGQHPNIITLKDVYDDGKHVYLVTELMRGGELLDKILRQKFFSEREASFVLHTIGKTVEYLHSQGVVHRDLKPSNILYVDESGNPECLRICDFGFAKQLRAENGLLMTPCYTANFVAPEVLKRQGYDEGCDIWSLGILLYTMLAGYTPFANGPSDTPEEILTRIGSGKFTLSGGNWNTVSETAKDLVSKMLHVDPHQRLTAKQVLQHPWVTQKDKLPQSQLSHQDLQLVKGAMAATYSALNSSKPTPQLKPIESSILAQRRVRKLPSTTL
# Sequence of Calcium/calmodulin-dependent protein kinase type II subunit delta (Homo sapiens) (Q13557 whole entry): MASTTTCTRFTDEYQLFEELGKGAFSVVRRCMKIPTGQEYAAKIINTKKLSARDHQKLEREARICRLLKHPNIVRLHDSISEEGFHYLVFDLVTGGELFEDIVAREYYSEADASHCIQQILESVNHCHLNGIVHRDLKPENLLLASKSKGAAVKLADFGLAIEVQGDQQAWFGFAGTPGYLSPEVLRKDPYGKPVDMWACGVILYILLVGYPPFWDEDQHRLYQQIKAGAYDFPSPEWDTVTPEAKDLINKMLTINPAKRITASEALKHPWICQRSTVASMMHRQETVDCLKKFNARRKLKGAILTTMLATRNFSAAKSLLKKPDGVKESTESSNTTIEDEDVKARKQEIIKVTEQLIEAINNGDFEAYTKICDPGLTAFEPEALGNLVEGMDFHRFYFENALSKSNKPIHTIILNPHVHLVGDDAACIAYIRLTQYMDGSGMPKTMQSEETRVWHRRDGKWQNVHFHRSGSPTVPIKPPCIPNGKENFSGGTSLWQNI
# Sequence of Fibroblast growth factor receptor 3 (Homo sapiens) (P22607 23-806 limits assumed): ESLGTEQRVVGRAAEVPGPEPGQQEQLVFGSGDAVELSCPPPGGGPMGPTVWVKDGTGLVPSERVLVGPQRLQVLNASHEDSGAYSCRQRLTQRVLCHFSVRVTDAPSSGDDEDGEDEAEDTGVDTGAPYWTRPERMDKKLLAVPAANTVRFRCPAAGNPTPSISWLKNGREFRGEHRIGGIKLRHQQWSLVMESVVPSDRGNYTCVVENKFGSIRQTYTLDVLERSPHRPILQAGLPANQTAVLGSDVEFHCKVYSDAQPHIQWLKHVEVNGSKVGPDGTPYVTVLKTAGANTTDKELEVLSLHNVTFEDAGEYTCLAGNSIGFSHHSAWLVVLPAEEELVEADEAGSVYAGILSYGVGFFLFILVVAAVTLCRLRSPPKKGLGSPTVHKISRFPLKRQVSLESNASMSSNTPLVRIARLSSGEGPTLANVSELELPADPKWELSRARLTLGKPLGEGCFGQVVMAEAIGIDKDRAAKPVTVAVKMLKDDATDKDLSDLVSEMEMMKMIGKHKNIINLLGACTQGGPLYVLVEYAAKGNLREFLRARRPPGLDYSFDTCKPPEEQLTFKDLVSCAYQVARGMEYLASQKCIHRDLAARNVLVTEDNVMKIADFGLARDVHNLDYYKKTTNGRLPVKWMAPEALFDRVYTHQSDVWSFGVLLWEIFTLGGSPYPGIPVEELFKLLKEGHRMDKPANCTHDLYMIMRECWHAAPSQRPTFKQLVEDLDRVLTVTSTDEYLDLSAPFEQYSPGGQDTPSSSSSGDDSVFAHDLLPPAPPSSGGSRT
smiles,measurement,setting,value
NCCc1ccc(-c2ncnc3[nH]cnc23)cc1,inhibition,[1],27%
Clc1ccc(C2(c3ccc(-c4ncnc5[nH]cnc45)cc3)CCNCC2)cc1,inhibition,[2],4%
NC1CCN(c2ncnc3[nH]ccc23)CC1,inhibition,[3],2%
same,inhibition,[4],7.5%
c1cnc2[nH]ccc2c1,inhibition,[5],24%
same,inhibition,[6],64%
same,inhibition,[7],42%
NC1(Cc2ccc(Cl)cc2)CCN(c2ncnc3[nH]ccc23)CC1,inhibition,[8],0%
same,inhibition,[9],13%
same,inhibition,[10],0%
c1nc(N2CCOCC2)c2nc[nH]c2n1,inhibition,[11],74%
NCC1CN(c2ncnc3[nH]c4cnccc4c23)CCO1 (stereo not drawn),inhibition,[12],2%
CNCc1ccc(-c2ncnc3[nH]cnc23)cc1,inhibition,[13],43%

# — ChEMBL document CHEMBL3132769, “Fragment growing to retain or alter the selectivity of anchored kinase hinge-binding fragments” (Medchemcomm, 2014)
